“And” between values parts separate entries of the source, which are not always exact repeats. Equal entries are not always repeated. Where two headings read alike, the source gives them in different places. Non-standard residues stand in square brackets, D forms with d. Residues, ends and D or L forms follow the SMILES beside them.
Columns and labels:
[1] = test system: hyperalgesia evoked by IL-1β; assay: Modified Randall-Sellito rat paw pressure test: hyperalgesia evoked by IL-1β; format: in vivo, rats; settings: 100 »g ipl, 30 minutes before 0.05U IL-1β ipl or ip
Experimental: (§1) Hyperalgesia was evaluated by the application of a constant pressure of 20 mmHg to the hind paws of rats (Wistar strain, male, weight 135 - 170g) which was discontinued when animals presented a characteristic freezing reaction (reaction time). The intensity of hyperalgesia was quantified as the variation of the reaction time (Δ reaction time, sec) obtained by subtracting the value measured 1,2,3 or 4h after administration of the hyperalgesic agent from the pre-injection control reaction time (zero time). The experimenter was unaware of the group treatments.
(§2) There were 5 animals per treatment group. […]

[2] = test system: human blood mononuclear cells (MNC); assay: PGE₂ release by blood mononuclear cells, radioimmunoassay; format: cell-based; settings: in words
Experimental: The effect of K(D)PT and indomethacin on PGE₂ release by human blood mononuclear cells (MNC) was investigated. The MNC were isolated from buffy coat residues by density gradient centrifugation (Ficoll-hypaque, Sigma) and resuspended in RPMI 1640 culture medium (Gibco) + 2% inactivated foetal calf serum (Imperial Laboratories). […] Values are means of quadruplicates ± s.e.m.'s. PGE₂ concentrations were measured by radioimmunoassay (NEN Research Products).

gastric lesions = assay: Gastric lesions after treatment; format: in vivo, mice; settings: 32 mg/kg
[3] = test system: hot plate (55°C) reaction time; assay: Standard hot plate (55°C) test; settings: in vivo
Experimental: A standard hot plate (55°C) test was carried out. […]

[4] = test system: hyperalgesia evoked by DbcAMP; assay: Rat paw pressure test: hyperalgesia evoked by DbcAMP; parameters: species or system rats; settings: in vivo
Experimental: as §1
The effect of the tripeptides KPV and K(D)PV on hyperalgesia evoked in rats by DbcAMP was studied. Treatments were given ip, 1h before DbcAMP was injected into the paw (ipl). There were 5 animals per treatment group. Delta reaction times were measured 3h after DbcAMP. […] The control was DbcAMP (100»g/paw). […]

[5] = test system: hyperalgesia evoked by IL-1β; settings: cited from earlier work
[6] = test system: hyperalgesia evoked by PGE₂; assay: Rat paw pressure test: hyperalgesia evoked by PGE₂; parameters: species or system rats; settings: in vivo
Experimental: as §1, §2

mice = settings: administered to mice; Goerne et al 1982; cited from earlier work
hot-plate test = settings: injected into the brain; Herman et al 1985; cited from earlier work

COc1ccc2c(c1)c(CC(=O)O)c(C)n2C(=O)c1ccc(Cl)cc1 [Indomethacin, indomethacin]
effect of pretreatment on hyperalgesic response, contralateral paws (CL) [1]: no effect | effect of pretreatment on hyperalgesic response, treated paws (I) [1]: markedly attenuated | effect on production of PGE₂ by MNC [2]: abolished PGE₂ production

C[C@@H](O)[C@H](NC(=O)[C@H]1CCCN1C(=O)[C@@H](N)CCCCN)C(=O)O [K(D)PT, Lys-D-Pro-Thr] (H-Lys-[dP]-Thr-OH)
gastric lesions (gastric lesions): No lesions were observed

CN1CC[C@]23c4c5ccc(O)c4O[C@H]2[C@@H](O)C=C[C@H]3[C@H]1C5 [Morphine, morphine]
reaction time difference, hot plate (55°C) [3]: 3.52 s and 5.55 s | antagonism of hyperalgesia evoked by DbcAMP [4]: effective antagonist | change of delta reaction time vs control (= 100%) [4]: -64.0% | delta reaction time [4]: 6.2 ± 0.4 s | antagonism of on-going hyperalgesia ([5]; rat, in vivo): able to antagonise on-going hyperalgesia | change of delta reaction time vs control (= 100%) [6]: -63.7% | delta reaction time [6]: 6.1 ± 0.8 s

Cc1c(N(C)CS(=O)(=O)O)c(=O)n(-c2ccccc2)n1C [dipyrone]
antagonism of on-going hyperalgesia ([5]; general statement on known analgesics, no data): able to antagonise on-going hyperalgesia

Arg-Pro
hyperalgesia on administration (mice): evoke hyperalgesia

Lys-Pro
hyperalgesia on administration (mice): evoke hyperalgesia | antinociceptive action in a hot-plate test (hot-plate test): elicited antinociceptive action

Source: patent publication EP0335662B1, “Peptides” (BRITISH TECHNOLOGY GROUP LIMITED, priority 1988, dated 1989)
